Patent publication US20080039425A1, “Methods and Compositions to Reduce Tissue Irritation in Parenteral Formulations” (ALLOS THERAPEUTICS, INC., priority 2004, published 2008)

Tested on: rat tail vein
Test: Rat-tail model, histopathological evaluation of tissue damage
Format: in vivo
Conditions: for Histopathology Score: rat tail vein, relative to efaproxiral at 38 mg/mL
Method: In order to determine if the effects seen in the NMR correlated to an ability of the dextrins to protect tissue, an animal model was designed. […] A 38 mg/mL efaproxiral solution was administered as the positive control. A saline solution was used as the negative control.
Maltodextrin has the property of being a safer molecule than its cyclic relative.

Compound | Histopathology Score (efaproxiral 20 mg/mL) | Histopathology Score (efaproxiral 38 mg/mL (positive control)) | Tissue damage in rat tail (in words) (38 mg/mL efaproxiral, compared with saline negative control)
Cc1cc(C)cc(NC(=O)Cc2ccc(OC(C)(C)C(=O)O)cc2)c1 [Efaproxiral, 2-[4-[2-[(3,5-dimethylphenyl)amino]-2-oxoethyl]phenoxy]-2-methyl-propionic acid] | 24% | 100% | –
Cc1cc(C)cc(NC(=O)Cc2ccc(OC(C)(C)C(=O)[O-])cc2)c1.[Na+] [efaproxiral-Na] | – | – | significant damage was observed beyond that associated with the administration
